Results published in patent US8314071B2, “Bioactive molecules from co-cultivation of microbes” (Massachusetts Institute of Technology, priority 2007, dated 2012).

Key:
Staphylococcus aureus = assay: paper disk diffusion, Staphylococcus aureus; format: cell-based; details: paper disk (6 mm in diameter) containing 30 μg on agar plate
Description: (§1) No evidence of activity against eukaryotes, such as S. cerevisiae or cytotoxicity against human leukemia (HL-60) was observed.
(§2) Antimicrobial activity was measured by the conventional paper disk diffusion method. See Bauer, A. W.; Kirby, W. M.; Sherris, J. C.; Turck, M. Am. J. Clin. Pathol. 1966, 45, 493-96; and Hachem, C. Y.; Clarridge, J. E.; Reddy, R.; Flamm, R.; Evans, D. G.; Tanaka, S. K.; Graham, D. Y. Diagn. Microbiol. Infect. Dis. 1996, 24, 37-41. The bioactive fractions during the purification procedures were confirmed by activity against Streptomyces padanus, while pure rhodostreptomycins were tested for activity against S. padanus, Escherichia coli, Staphylococcus aureus, Bacillus subtilis, Helicobacter pylori and Saccharomyces cerevisiae. In this method, each paper disk (Whatman AA Discs, 6 mm) containing the extract or 30 μg of the pure compounds was placed directly onto an agar plate that had been freshly inoculated with a lawn of the test organism. The activity was estimated by measuring the diameters of the inhibition zones.

Streptomyces padanus = assay: paper disk diffusion, Streptomyces padanus; format: cell-based; details: paper disk (6 mm in diameter) containing 30 μg on agar plate
Description: as §1, §2

Bacillus subtilis = assay: paper disk diffusion, Bacillus subtilis; format: cell-based; details: paper disk (6 mm in diameter) containing 30 μg on agar plate
Description: as §1, §2

Saccharomyces cerevisiae = assay: paper disk diffusion, Saccharomyces cerevisiae; format: cell-based; details: paper disk (6 mm in diameter) containing 30 μg on agar plate
Description: as §1, §2

Escherichia coli = assay: paper disk diffusion, Escherichia coli; format: cell-based; details: paper disk (6 mm in diameter) containing 30 μg on agar plate
Description: as §1, §2

Helicobacter pylori = assay: paper disk diffusion, Helicobacter pylori; format: cell-based; details: paper disk (6 mm in diameter) containing 30 μg on agar plate
Description: as §1, §2

solubility in solvents = format: physicochemical
[1] = test system: Gram-negative and Gram-positive bacteria; assay: conventional disk assays on microbial lawns, overall; format: cell-based; details: rhodostreptomycin B (2) compared with rhodostreptomycin A (1)
Description: as §1, §2

SMILES: CN[C@@H]1[C@H](O[C@H]2[C@H](O[C@H]3[C@H](O)[C@@H](O)[C@H](N=C(N)N)[C@@H](O)[C@@H]3N=C(N)N)O[C@H](C)[C@@]23OC(=O)N[C@H]3O)O[C@@H](CO)[C@H](O)[C@H]1O [Rhodostreptomycin 1, Rhodostreptomycin A]
- diameter of inhibition zone (Staphylococcus aureus): 9 mm
- diameter of inhibition zone (Streptomyces padanus): 15 mm
- diameter of inhibition zone (Bacillus subtilis): 8 mm
- diameter of inhibition zone (Saccharomyces cerevisiae): 0 mm
- diameter of inhibition zone (Escherichia coli): 8 mm
- diameter of inhibition zone (Helicobacter pylori): 10 mm
- solubility in chloroform or n-hexane (solubility in solvents): not in chloroform or n-hexane
- solubility in water (solubility in solvents): highly soluble in water

SMILES: CN[C@@H]1[C@H](O[C@H]2[C@H](O[C@H]3[C@H](O)[C@@H](O)[C@H](N=C(N)N)[C@@H](O)[C@@H]3N=C(N)N)O[C@H](C)[C@@]23OC(=O)N[C@@H]3O)O[C@@H](CO)[C@H](O)[C@H]1O [Rhodostreptomycin 2, Rhodostreptomycin B]
- diameter of inhibition zone (Staphylococcus aureus): 14 mm
- diameter of inhibition zone (Streptomyces padanus): 18 mm
- diameter of inhibition zone (Bacillus subtilis): 14 mm
- diameter of inhibition zone (Saccharomyces cerevisiae): 0 mm
- diameter of inhibition zone (Escherichia coli): 12 mm
- diameter of inhibition zone (Helicobacter pylori): 18 mm
- solubility in chloroform or n-hexane (solubility in solvents): not in chloroform or n-hexane
- solubility in water (solubility in solvents): highly soluble in water
- activity relative to the other isomer [1]: more potent
